Reference: PubChem BioAssay (NCI)
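In this assay, cells in 96-well plates receive the compound at five concentrations for 48 hours. Endpoints are linearly interpolated between the surrounding concentrations. Here, GI50 denotes the concentration required for 50% inhibition of growth. TGI is the concentration that stops growth completely.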

Columns and labels:
Assay in all cases: NCI-60 cell line screen, 48 h
RXF 393 renal = system: RXF 393 renal
TK-10 renal = system: TK-10 renal
SNB-19 CNS = system: SNB-19 CNS
SK-MEL-5 melanoma = system: SK-MEL-5 melanoma
KM12 colon = system: KM12 colon
DMS 273 small cell lung = system: DMS 273 small cell lung
HL-60(TB) leukemia = system: HL-60(TB) leukemia
DLD-1 colon = system: DLD-1 colon
T-47D breast = system: T-47D breast
PC-3 prostate = system: PC-3 prostate

With IC[P+]1(c2ccccc2)CCCC1 the TGI (RXF 393 renal) was > 100 µM, the TGI (TK-10 renal) was > 100 µM and the TGI (SNB-19 CNS) was > 100 µM. For the same compound, the TGI (SK-MEL-5 melanoma) was 83.1 µM, the TGI (KM12 colon) was > 100 µM and the TGI (DMS 273 small cell lung) was > 100 µM. The TGI (HL-60(TB) leukemia) was > 100 µM and the TGI (DLD-1 colon) was > 100 µM.
Cn1c(=O)c(N=Nc2c(=O)n(C)c(=O)n3c2[nH]c2ccccc23)c2[nH]c3ccccc3n2c1=O was tested, and the TGI (RXF 393 renal) was > 100 µM, the TGI (TK-10 renal) was > 100 µM and the TGI (SNB-19 CNS) was 61.1 µM. For the same compound, the TGI (SK-MEL-5 melanoma) was > 100 µM, the TGI (KM12 colon) was > 100 µM and the TGI (DMS 273 small cell lung) was > 100 µM. The TGI (HL-60(TB) leukemia) was > 100 µM and the TGI (DLD-1 colon) was > 100 µM.
CCOC(=O)NC(=O)c1cn(CCN2CCN(C(=O)NCCCCCCNC(=O)N3CCN(CCn4cc(C(=O)NC(=O)OCC)c(=O)[nH]c4=O)CC3)CC2)c(=O)[nH]c1=O was tested, and the TGI (RXF 393 renal) was > 100 µM, the TGI (TK-10 renal) was > 100 µM and the TGI (SNB-19 CNS) was > 100 µM. The TGI (SK-MEL-5 melanoma) was > 100 µM, the TGI (KM12 colon) was > 100 µM and the TGI (DMS 273 small cell lung) was > 100 µM. For the same compound, the TGI (HL-60(TB) leukemia) was > 100 µM.
Cc1c(OC(C)C(=O)O)ccc2c(-c3ccccc3)cc(=O)oc12 (stereo unspecified) was tested, and the TGI (RXF 393 renal) was > 100 µM, the TGI (TK-10 renal) was > 100 µM and the TGI (SNB-19 CNS) was > 100 µM. The TGI (SK-MEL-5 melanoma) was > 100 µM, the TGI (KM12 colon) was > 100 µM and the TGI (HL-60(TB) leukemia) was > 100 µM. For the same compound, the TGI (DLD-1 colon) was > 100 µM.
For Cn1ccnc1CCc1c(Cl)cccc1Cl, the TGI (RXF 393 renal) was > 100 µM, the TGI (TK-10 renal) was > 100 µM and the TGI (SK-MEL-5 melanoma) was > 100 µM. For the same compound, the TGI (KM12 colon) was > 100 µM, the TGI (DMS 273 small cell lung) was > 100 µM and the TGI (HL-60(TB) leukemia) was > 100 µM. The TGI (DLD-1 colon) was > 100 µM.
O=C1C2C3C=C4c5ccccc5N(c5ccccc5)C4(C2C(=O)N1c1ccccc1)C1C(=O)N(c2ccccc2)C(=O)C31 (stereo unspecified) was tested, and the TGI (TK-10 renal) was > 100 µM, the TGI (SNB-19 CNS) was > 100 µM and the TGI (KM12 colon) was > 100 µM. The TGI (HL-60(TB) leukemia) was > 100 µM and the TGI (DLD-1 colon) was > 100 µM.
For O=C1Nc2ccccc2C1(O)C/C(=N/O)c1ccc2ccccc2c1 (stereo unspecified), the TGI (RXF 393 renal) was > 100 µM, the TGI (TK-10 renal) was > 100 µM and the TGI (SNB-19 CNS) was > 100 µM. For the same compound, the TGI (KM12 colon) was > 100 µM, the TGI (HL-60(TB) leukemia) was > 100 µM and the TGI (DLD-1 colon) was > 100 µM.
For CC1=C(C(=O)Nc2ccccc2C)C(c2ccc(Cl)cc2)C(C(=O)Nc2ccccc2C)=C(C)N1, the TGI (RXF 393 renal) was > 100 µM, the TGI (TK-10 renal) was > 100 µM and the TGI (SNB-19 CNS) was > 100 µM. The TGI (SK-MEL-5 melanoma) was > 100 µM, the TGI (KM12 colon) was > 100 µM and the TGI (HL-60(TB) leukemia) was > 100 µM. The TGI (DLD-1 colon) was > 100 µM.
With CCc1cccc(C)c1NS(=O)(=O)c1ccccc1 the TGI (RXF 393 renal) was > 100 µM, the TGI (TK-10 renal) was > 100 µM and the TGI (SK-MEL-5 melanoma) was > 100 µM. For the same compound, the TGI (KM12 colon) was > 100 µM, the TGI (DMS 273 small cell lung) was > 100 µM and the TGI (HL-60(TB) leukemia) was > 100 µM. For the same compound, the TGI (DLD-1 colon) was > 100 µM.
CC[O-].CC[O-].O=C([CH-]C(=O)c1ccccc1)CCCCCCCCC(=O)[CH-]C(=O)c1ccccc1.[Ti+4] was tested, and the GI50 (RXF 393 renal) was 45 µM, the TGI (RXF 393 renal) was > 100 µM and the GI50 (TK-10 renal) was > 100 µM. For the same compound, the TGI (TK-10 renal) was > 100 µM, the GI50 (SK-MEL-5 melanoma) was > 100 µM and the TGI (SK-MEL-5 melanoma) was > 100 µM. For the same compound, the GI50 (KM12 colon) was 0.032 µM, the TGI (KM12 colon) was 3.25 µM and the GI50 (DMS 273 small cell lung) was > 100 µM. The TGI (DMS 273 small cell lung) was > 100 µM, the GI50 (HL-60(TB) leukemia) was > 100 µM and the TGI (HL-60(TB) leukemia) was > 100 µM. For the same compound, the GI50 (DLD-1 colon) was > 100 µM and the TGI (DLD-1 colon) was > 100 µM.
For O=C1C[C@H]2CCCN2[C@@H](c2ccccc2)C1, the TGI (RXF 393 renal) was > 100 µM, the TGI (TK-10 renal) was > 100 µM and the TGI (SNB-19 CNS) was > 100 µM. For the same compound, the TGI (SK-MEL-5 melanoma) was > 100 µM, the TGI (KM12 colon) was > 100 µM and the TGI (DMS 273 small cell lung) was > 100 µM. The TGI (HL-60(TB) leukemia) was > 100 µM.
Cc1cc2c(C)nn(Cc3ccccc3)c2c(C(=O)O)c1C was tested, and the TGI (RXF 393 renal) was > 100 µM, the TGI (TK-10 renal) was > 100 µM and the TGI (SNB-19 CNS) was > 100 µM. For the same compound, the TGI (DMS 273 small cell lung) was > 100 µM and the TGI (HL-60(TB) leukemia) was > 100 µM.
CCc1c(C#N)c(=O)[nH]c(=O)n1CCN1CCN(C(=O)NCCCCCCNC(=O)N2CCN(CCn3c(CC)c(C#N)c(=O)[nH]c3=O)CC2)CC1 was tested, and the TGI (TK-10 renal) was > 100 µM, the TGI (SNB-19 CNS) was > 100 µM and the TGI (SK-MEL-5 melanoma) was > 100 µM. The TGI (DMS 273 small cell lung) was > 100 µM, the TGI (HL-60(TB) leukemia) was > 100 µM and the TGI (DLD-1 colon) was > 100 µM.
In the case of O=[N+]([O-])c1ccccc1N=Nc1c(O)[nH]c2cccc(C(F)(F)F)c12, the TGI (RXF 393 renal) is reported as > 100 µM, the TGI (T-47D breast) is reported as > 100 µM and the TGI (TK-10 renal) is reported as > 100 µM. The TGI (SNB-19 CNS) was > 100 µM, the TGI (PC-3 prostate) was > 100 µM and the TGI (SK-MEL-5 melanoma) was > 100 µM. The TGI (KM12 colon) was > 100 µM and the TGI (HL-60(TB) leukemia) was > 100 µM.
With O=c1oc2ccccc2c2c1Sc1ccccc1N2 the TGI (RXF 393 renal) was > 100 µM, the TGI (T-47D breast) was 45.1 µM and the TGI (TK-10 renal) was > 100 µM. For the same compound, the TGI (SNB-19 CNS) was > 100 µM, the TGI (PC-3 prostate) was > 100 µM and the TGI (SK-MEL-5 melanoma) was > 100 µM. The TGI (KM12 colon) was > 100 µM and the TGI (HL-60(TB) leukemia) was > 100 µM.
For C[C@@H](NC(C#N)c1ccco1)c1ccccc1 (stereo partly specified), the TGI (RXF 393 renal) was > 100 µM, the TGI (T-47D breast) was > 100 µM and the TGI (TK-10 renal) was > 100 µM. For the same compound, the TGI (SNB-19 CNS) was > 100 µM, the TGI (PC-3 prostate) was > 100 µM and the TGI (SK-MEL-5 melanoma) was > 100 µM. The TGI (KM12 colon) was > 100 µM and the TGI (HL-60(TB) leukemia) was > 100 µM.
In the case of CCSC1=NC2C(N(CC)C(=O)N2CC)N1/N=C/C=C/c1ccccc1[N+](=O)[O-] (stereo unspecified), the GI50 (RXF 393 renal) is reported as 0.033 µM, the TGI (RXF 393 renal) is reported as > 100 µM and the GI50 (T-47D breast) is reported as 2.59 µM. The TGI (T-47D breast) was > 82.1 µM, the GI50 (TK-10 renal) was 36.8 µM and the TGI (TK-10 renal) was > 100 µM. For the same compound, the GI50 (SNB-19 CNS) was 0.372 µM, the TGI (SNB-19 CNS) was > 100 µM and the GI50 (PC-3 prostate) was 0.187 µM. For the same compound, the TGI (PC-3 prostate) was > 100 µM, the GI50 (SK-MEL-5 melanoma) was 0.112 µM and the TGI (SK-MEL-5 melanoma) was 0.538 µM. The GI50 (KM12 colon) was 0.0887 µM, the TGI (KM12 colon) was > 37.7 µM and the GI50 (HL-60(TB) leukemia) was 0.205 µM. It also gave a TGI (HL-60(TB) leukemia) of 0.502 µM.
For O=C(NCCCOC(=O)CCCCCCCCC(=O)OCCCNC(=O)NC(=O)c1c[nH]c(=O)[nH]c1=O)NC(=O)c1c[nH]c(=O)[nH]c1=O, the TGI (TK-10 renal) was > 100 µM, the TGI (SNB-19 CNS) was > 100 µM and the TGI (SK-MEL-5 melanoma) was > 100 µM. For the same compound, the TGI (KM12 colon) was > 100 µM, the TGI (DMS 273 small cell lung) was > 100 µM and the TGI (HL-60(TB) leukemia) was > 100 µM. For the same compound, the TGI (DLD-1 colon) was > 100 µM.
